PMC12698445, “Phenolic profile of different solvent extracts of Reseda alba L. and evaluation of anti-quorum sensing, antioxidant, and enzyme inhibition activities” (Frontiers in Nutrition, 2025)

Biological target: T1, fungal tyrosinase
T1 construct: gene PPO3; only 'fungal' printed
Test: L-DOPA oxidation, […] nm
Assay type: biochemical
Details: L-DOPA substrate, pH 6.8, room temperature

## O=c1cc(CO)occ1O [Kojic acid]
  Tyrosinase / IC50: 23.80 ± 0.25 µg/mL
